The source of these data is patent US12606552B2, “Bifunctional compound, preparation method therefor, and use thereof” (SUZHOU KINTOR PHARMACEUTICALS, INC., priority 2020, dated 2026).

Test [1] relates to flank sebaceous glands of golden hamster. Description: In vivo efficacy on acne in female golden hamsters (growth of sebaceous plaques induced by testosterone propionate). The note with it: for The inhibition rate of the growth of sebaceous plaques (%): 400 μg (1.6%) + testosterone propionate 12 μg, skin smear once a day, 21 days. From the text:
Activity Assay Example 7: In Vivo Efficacy of Compounds on Acne in Female Golden Hamsters
1. Test object: The flank sebaceous glands of golden hamster are androgen-dependent organs, and testosterone propionate (male hormone) promotes the enlargement of sebaceous glands. This experiment is mainly to study the inhibitory effect of CB-03-01 (positive drug), Flutamide (positive drug) and the compound on sebaceous gland enlargement in female golden hamster acne model (androgen dependence), to further observe the in vivo drug efficacy of the compound, to provide the basis for clinical trials of androgen-induced acne symptoms.
Androgen (Testosterone Propionate-TP); CB-03-01 (Clascoterone, CAS No. 19608-29-8); □ Flutamide (Flutamide, CAS No. 13311-84-7); compound A46 of the present invention.
2.2 Experimental Animals, See Table 4 for Details
2.3 Administration Vehicle: Acetone. 3. Experimental Design
In this experiment, from 72 female golden hamsters, according to the size and body weight of sebaceous glands, golden hamsters were evenly distributed to each group, 6 mice per group, a total of 7 groups, and they were administered continuously for 21 days.
According to the protocol in the table, […] of drug was administered each time, it was evenly smeared on the sebaceous glands, and administered once a day.
Animal grouping and status observation: Before grouping, the body weight was weighed, and the sebaceous glands on both sides were shaved for the observation of the size of sebaceous glands. Animals were observed twice a day in the morning and afternoon during the administration period. On the 21st day after administration, the size of sebaceous glands and the body weight of animals were observed and recorded.
The size of the sebaceous glands is expressed by the area, and the vernier caliper recorded its long side (a) and short side (b), and the area of the sebaceous glands (S) is obtained from the formula for calculating the area of a rectangle. In model group and administration group, ΔS=S−S(vehicle). Growth inhibition rate (%)=(ΔS(acetone testosterone group)−ΔS (administration group))/ΔS(acetone testosterone group)*100%.

Test [2] has as its system androgenetic alopecia model in C57BL/6J mice. Description: Hair regeneration effects on androgenic alopecia C57 mouse model (DHT-induced). The format is in vivo, C57BL/6N mice. Conditions: AVER n = 6, score 0-5. An excerpt:
Activity Assay Example 8: Hair Regeneration Effects of Compounds on Androgenic Alopecia C57 Mouse Model
The purpose of this study was to compare the effect of the compounds prepared by the present invention as AR protein degraders on hair regrowth in an androgenetic alopecia model in C57BL/6J mice by transdermal application route of administration, and to provide data to support subsequent clinical trials.
2. Experimental Principle
Name of test compound I: dihydrotestosterone DHT; name of test compound II: compound A46 of the present invention; name of test compound III: minoxidil.
4. Experimental animals: strain: C57BL/6N mice; age: 6-7 weeks; gender: male; number of animals: 70 (10 for later use); rearing environment: specific pathogen-free (SPF).
70 mice were deeply anesthetized, and the hair on the back of the mice was removed with an animal shaver, then the depilatory cream (Veet https://item.jd.com/6291245.html) was smeared evenly on the surface of the mice skin, and left 7-10 minutes. Then the hair was gently scraped off with a hair removal scraper against the direction of the hair, and finally the residual hair removal cream on the skin surface was fully washed with water to avoid burning the mice skin.
This experiment was divided into 6 groups, and the DHT administration started on the day of hair removal, A46 is administered on day 2 after hair removal and is counted as day 1 (the day of hair removal is counted as day 0).
5.3 Test Compound Preparation Method
5.4 Observation and Measurement Indicators • 1) Body weight/g: From the first day of administration, body weight was weighed and recorded twice a week. • 2) Hair regeneration (anagen) score (0 points: no darkening of skin color in all areas; 1 point: darkening of gray skin color areas; 2 points: visible short hair; 3 points: thin hair; 4 points: thick hair; 5 points: full hair growth).
All mice were photographed on day 1 after hair removal, and then photographed and scored daily from day 4 until the end of the experiment. • 3) At the end of the experiment, skin and blood collection operations were performed as needed. 5.5 Criteria for Drug Withdrawal and Experiment Termination
Data are presented as average±standard error (AVE±SEM). One-way multi-level analysis of variance was used for statistics. The comparison between each drug group and the model group was performed by Stundent's t-test or rank sum test, and the p value was calculated. p<0.05 means there is a significant difference between the two groups, p<0.01 means there is a extremely significant difference between the two groups.

The test system of test [3] is LNCaP (human prostate cancer). The test can be described thus: Hormone-dependent prostate cancer long-term efficacy test (LNCaP xenograft, tumor growth inhibition). The format is in vivo, SCID nude mice. The protocol: Activity Assay Example 5: Hormone-Dependent Prostate Cancer Long-Term Efficacy Test
1. Tumor Model Establishment
1.5*10^7 LNCaP (human prostate cancer) was purchased from the Chinese Academy of Sciences Cell Bank and cultured in RPMI-1640 medium containing 10% fetal bovine serum. The cells were grown to 80-90% confluence and passaged in about 4-5 days, and the cells were grown to a sufficient amount and then inoculated into nude mice.
18-20 g SCID nude mice aged 6-7 weeks old were purchased from Beijing Vital River Co., Ltd. Mice were kept in SPF animal room, in which the temperature was 20-25° C., and the humidity was 40%-70%, and light/dark was 12 hours a day respectively. Animals were kept in separate cages, 5 per cage, with free access to food and water, in which the feed was sterilized by irradiation, and the water was autoclaved. The mice were grouped for experiment when raised to 10˜11 weeks old. LNCaP tumor cells were directly inoculated into the right back of nude mice.
3. Grouping and Administration Schedule Design
When the average tumor volume reached 200-300 mm^3, the tumors with good shape were selected for random number grouping according to the tumor volume, and the selected animals were marked and divided into 5 groups, 5 per group. Administration vehicle: 5% EtOH, 5% solutolHS15 in PBS. The corresponding dose of compound was administered by gavage.
Data are presented as mean±standard deviation (Mean±SD). One-way multi-level analysis of variance was used for statistics, and the comparison between each drug group and the model group was performed by Stundent's t-test or rank sum test, and the p value was calculated. p<0.05 means there is a significant difference between the two groups.

Another test deals with T1, AR (Homo sapiens, UniProt P10275, T878A).
T1 sequence (P10275 1-920 T878A): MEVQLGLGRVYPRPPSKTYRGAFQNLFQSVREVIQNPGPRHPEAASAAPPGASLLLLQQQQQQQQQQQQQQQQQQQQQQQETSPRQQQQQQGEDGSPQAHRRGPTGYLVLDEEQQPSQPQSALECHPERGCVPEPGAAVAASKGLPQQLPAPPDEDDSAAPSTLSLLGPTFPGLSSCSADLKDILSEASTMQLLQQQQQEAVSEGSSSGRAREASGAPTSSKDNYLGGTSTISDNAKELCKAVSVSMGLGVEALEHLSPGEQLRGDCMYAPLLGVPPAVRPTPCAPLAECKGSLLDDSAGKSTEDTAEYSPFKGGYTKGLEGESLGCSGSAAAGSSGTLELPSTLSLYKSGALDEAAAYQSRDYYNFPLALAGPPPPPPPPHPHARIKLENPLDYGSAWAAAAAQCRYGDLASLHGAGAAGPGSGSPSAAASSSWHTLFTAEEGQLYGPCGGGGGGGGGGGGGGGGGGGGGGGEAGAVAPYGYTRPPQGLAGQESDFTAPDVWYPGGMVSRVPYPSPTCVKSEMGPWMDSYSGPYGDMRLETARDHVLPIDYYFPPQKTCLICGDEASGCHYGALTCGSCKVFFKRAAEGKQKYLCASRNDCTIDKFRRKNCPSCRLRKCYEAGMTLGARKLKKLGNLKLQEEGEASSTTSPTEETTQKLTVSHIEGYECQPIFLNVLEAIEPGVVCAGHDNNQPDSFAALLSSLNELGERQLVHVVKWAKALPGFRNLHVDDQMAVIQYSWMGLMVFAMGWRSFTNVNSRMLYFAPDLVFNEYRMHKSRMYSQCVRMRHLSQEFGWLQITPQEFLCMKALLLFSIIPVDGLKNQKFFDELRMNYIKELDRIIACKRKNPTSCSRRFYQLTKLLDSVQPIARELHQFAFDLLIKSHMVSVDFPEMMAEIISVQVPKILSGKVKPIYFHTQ
Description: Effects of compounds on AR expression in LNCaP cells (ELISA, DC50). Further details: Measurement of the Effects of Drugs on the Expression of AR in Cells by ELISA Method; endogenous in cells; host or cells: LNCaP. The note with it: 24 hours of drug treatment, AR by ELISA. The class given is cell-based. In a few lines: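 LNCaP cells at about 15,000/well were treated for 24 h with compound at 0.0001–2 μmol/L final. AR in cell lysates was measured by ELISA (OD450). Inhibition was relative to DMSO control after blank subtraction, and DC50 was calculated from it.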
On the technique in general: In an ELISA, binding on a coated surface is turned into a signal by an enzyme label.

`CC(C)C(=O)Nc1ccc([N+](=O)[O-])c(C(F)(F)F)c1` [Flutamide, reference compound]: in test [1], the “The inhibition rate of the growth of sebaceous plaques (%)” value came to 40.74%.
Same read-out and setting: in the case of `CCC(=O)O[C@]1(C(=O)CO)CC[C@H]2[C@@H]3CCC4=CC(=O)CC[C@]4(C)[C@H]3CC[C@@]21C` [CB-03-01, Clascoterone, reference compound] it was 69.53%.
Take `Nc1cc(N2CCCCC2)nc(N)[n+]1[O-]` [minoxidil, reference compound]: the Hair regeneration score stood at 0.00 in test [2] (5% skin smear BID + DHT 30 mpk, 0 day); 0.00 in test [2] (5% skin smear BID + DHT 30 mpk, 3 days); 0.00 in test [2] (5% skin smear BID + DHT 30 mpk, 5 days); 0.00 in test [2] (5% skin smear BID + DHT 30 mpk, 7 days); 0.33 in test [2] (5% skin smear BID + DHT 30 mpk, 10 days); 0.67 in test [2] (5% skin smear BID + DHT 30 mpk, 12 days). Further, the Hair regeneration score in test [2] (5% skin smear BID + DHT 30 mpk, 14 days) is 1.67; in test [2] (5% skin smear BID + DHT 30 mpk, 17 days), 2.33.
Consider `CCC(=O)O[C@H]1CC[C@H]2[C@@H]3CCC4=CC(=O)CC[C@]4(C)[C@H]3CC[C@]12C` [testosterone propionate, reference compound], for which, in test [1] (model group, 12 μg TP skin smear, after 21 days), the “area of sebaceous plaques” value is listed as 40-50 mm^2.
As to `C[C@]12CCC(=O)C[C@@H]1CC[C@@H]1[C@@H]2CC[C@]2(C)[C@@H](O)CC[C@@H]12` [DHT, dihydrotestosterone, reference compound], the Hair regeneration score in test [2] (DHT 30 mpk subcutaneous alone (model), 0 day) came to 0.00; in test [2] (DHT 30 mpk subcutaneous alone (model), 3 days), 0.00; in test [2] (DHT 30 mpk subcutaneous alone (model), 5 days), 0.00; in test [2] (DHT 30 mpk subcutaneous alone (model), 7 days), 0.00; in test [2] (DHT 30 mpk subcutaneous alone (model), 10 days), 0.00; in test [2] (DHT 30 mpk subcutaneous alone (model), 12 days), 0.00. The Hair regeneration score in test [2] (DHT 30 mpk subcutaneous alone (model), 14 days) worked out at 0.17; in test [2] (DHT 30 mpk subcutaneous alone (model), 17 days) it was 0.5.
For `Cc1ncsc1-c1ccc(CNC(=O)[C@@H]2C[C@@H](O)CN2C(=O)[C@@H](NC(=O)COCCCCOc2ccc(-c3ncc(N4C(=S)N(c5ccc(C#N)c(C(F)(F)F)c5F)C(=O)C4(C)C)cc3F)c(C(F)(F)F)c2)C(C)(C)C)cc1` [Compound A88], the “Tumor growth inhibition rate” value is 19.81% in test [3] (10 mpk by gavage, 3 days); 38.44% in test [3] (10 mpk by gavage, 7 days); 31.33% in test [3] (10 mpk by gavage, 10 days); 13.15% in test [3] (10 mpk by gavage, 14 days); 14.98% in test [3] (25 mpk by gavage, 3 days); 36.36% in test [3] (25 mpk by gavage, 7 days). Besides, the “Tumor growth inhibition rate” value in test [3] (25 mpk by gavage, 10 days) was found to be 37.51%; in test [3] (25 mpk by gavage, 14 days) it was 24.68%; in test [3] (50 mpk by gavage, 3 days), 22.30%; in test [3] (50 mpk by gavage, 7 days), 51.85%; in test [3] (50 mpk by gavage, 10 days), 42.62%; in test [3] (50 mpk by gavage, 14 days), 24.47%. The compound also registered a DC50 on AR of 55 nM.
